Source: paper PMC6705855, “Computational and experimental elucidation of Plasmodium falciparum phosphoethanolamine methyltransferase inhibitors: Pivotal drug target” (PLoS ONE, 2019)
Where two headings read alike, the source gives them in different places.

Columns and labels:
[1] = target: T1, Phosphoethanolamine methyltransferase (PfPMT) (Plasmodium falciparum, UniProt Q8IDQ9); test: enzyme-coupled SAM methyltransferase colorimetric assay ([…] nm), Michaelis-Menten kinetics with varied pEth; assay type: biochemical
T1 construct: gene PMT; recombinant PfPMT expressed from pET-24a in BL21 (DE3), ~30 kDa
T1 sequence (Q8IDQ9 1-266): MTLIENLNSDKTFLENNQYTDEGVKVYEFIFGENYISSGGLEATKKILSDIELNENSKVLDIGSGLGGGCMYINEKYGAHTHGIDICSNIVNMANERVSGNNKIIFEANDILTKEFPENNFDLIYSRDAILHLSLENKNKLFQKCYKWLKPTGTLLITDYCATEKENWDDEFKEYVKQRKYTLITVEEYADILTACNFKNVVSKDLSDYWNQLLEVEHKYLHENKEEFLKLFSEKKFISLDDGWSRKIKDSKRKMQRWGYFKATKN

purified protein = substrate: NCCOP(=O)(O)O; test: purified protein; assay type: biochemical, Plasmodium falciparum; conditions: SAM substrate (phosphobase) site

## NC(Cc1cc(=O)nc(-c2ccccn2)[nH]1)c1ccc(F)cc1 (stereo not drawn) [ASN.1, 6-[Amino-2-(4-fluoro-phenyl)-ethyl]-pyridin-2-yl-1H-pyrimidin-4-one]
[1]
  Ki: 1.2 µM

## COc1ccc(CCNC(=O)CNCC2CCCO2)cc1OC (stereo not drawn) [ASN.3, N-[2-(3,4-Dimethoxy-phenyl)-ethyl]-2-[(tetrahydro-furan-2-ylmethyl)-amino]-acetamide]
[1]; read-out: Ki
  Ki: 2.2 µM

B1: Phosphoethanolamine methyltransferase (PfPMT) (Plasmodium falciparum 3D7) (protein)
chain: MTLIENLNSDKTFLENNQYTDEGVKVYEFIFGENYISSGGLEATKKILSDIELNENSKVLDIGSGLGGGCMYINEKYGAHTHGIDICSNIVNMANERVSGNNKIIFEANDILTKEFPENNFDLIYSRDAILHLSLENKNKLFQKCYKWLKPTGTLLITDYCATEKENWDDEFKEYVKQRKYTLITVEEYADILTACNFKNVVSKDLSDYWNQLLEVEHKYLHENKEEFLKLFSEKKFISLDDGWSRKIKDSKRKMQRWGYFKATKN
notes: recombinant PfPMT expressed from pET-24a in BL21 (DE3), ~30 kDa
Purified protein
  Km: 52.4 µM
